# Legend:
# CHIKV nsP1 [1] = assay: FP Kd determination of GTP-Bodipy and ATP-Bodipy with purified CHIKV nsP1; conditions: fluorescence polarization, nsP1 titrated 3 μM to 1 nM, 1 hour 25°C
# CHIKV nsP1 [2] = assay: HTS validation potency repeatability, EC50 of GTP analogs in two independent FP runs
# [3] = test system: CHIKV nsP1 guanylation activity; assay: Guanylation assay, covalent nsP1-GTP-680 formation, SDS-PAGE fluorescence; conditions: for Percent of Control: single replicates, scaled guanylation
# [4] = test system: CHIKV nsP1 GTP binding site; assay: FP competition assay, displacement of GTP-Bodipy by GTP and RNA cap analogs (apparent Ki / EC50)
compound,measurement,setting,value
Bodipy-γ-phosphate-labeled GTP analog [GTP-Bodipy],Kd,CHIKV nsP1 [1]; 10 nM GTP-Bodipy,0.1 µM
Bodipy-γ-phosphate-labeled ATP analog [ATP-Bodipy],Kd,CHIKV nsP1 [1]; 5 nM ATP-Bodipy,2.1 µM
Nc1nc2c(ncn2[C@@H]2O[C@H](COP(=O)(O)O)[C@@H](O)[C@H]2O)c(=O)[nH]1 [GMP],Geometric Mean Potency,CHIKV nsP1 [2]; first set of rows,3.81
same,Geometric Mean Potency,CHIKV nsP1 [2]; second set of rows,3.81
same,ability to inhibit nsP1 guanylation (in words),"[3]; 100 μM of each GTP analog, 1 hour, Fig 4",least ability to inhibit guanylation
same,Average POC,"[3]; mean of replicates, 100 μM analog, Fig 4 data",99.8208
same,Percent of Control,"[3]; 100 μM analog, Fig 4 data, 100 µM",96.3413
same,Percent of Control,"[3]; 100 μM analog, Fig 4 data, listed as GMP2, 100 µM",112.788
same,Percent of Control,"[3]; 100 μM analog, Fig 4 data, listed as GMP3, 100 µM",90.3332
same,affinity for nsP1 GTP binding site / ability to compete with GTP-Bodipy (in words),"[4]; FP competition, compared with GTP",decrease of GMP affinity was quite large
same,Ki,"[4]; read-out: Average Ki, apparent Ki, 500 nM nsP1, 10 nM GTP-Bodipy, 1 hour 25°C",133 µM
